Results reported in patent US7504384B2 (priority 2000, dated 2009).
Where two headings read alike, the source gives them in different places.

How the values were obtained:
HIV = HIV infectivity of supernatant from whole blood mixed with HIV, on HT4-1022 cells; type: cell-based; details: whole blood mixed with HIV and Lipid-conjugate (50 μM Compound XXIV, 30 μM Compound XXII) for 30 min; FIG. 1.1
Excerpt: The cells were then spun and the supernatant was examined for HIV infectivity on HT4-1022 cells as described by Margolis-Nunno et al. (Transfusion, 36, 743-750, 1996).

HIV-1IIIB = test: Inhibition of p24 production (HIV-1IIIB infection of MT-2 cells); type: cell-based; details: fourth day, p24 ELISA
Method: Experiment 1.2: Inhibition of HIV-1IIIB Infection
After 1 h, half of the culture medium was changed and replaced by fresh medium (with/without Lipid-conjugate) and after 24 h, the second half of the culture medium was changed and replaced by fresh medium (with/without Lipid-conjugate). On the fourth day after incubation at 37° C., 100 μl of culture supernatants were collected from each well and an equal volume of fresh medium was added to the wells. The collected supernatants were mixed with an equal volume of 5% (v/v) Triton X-100 and assayed for p24 antigen using an ELISA kit from Coulter Immunology (Hialeah, Fla.).

[1] = system: HIV-1IIIB-infected H9 cells and uninfected MT-2 cells; test: Inhibition of fusion between HIV-infected and uninfected cells; type: cell-based; details: for IC50 (mean ± SD), inhibition of fusion / IC90 (mean ± SD), inhibition of fusion: H9/HIV-1 IIIB + MT-2 cells, 2 h; for IC50 / IC90: Table 1.4
Method: In this assay, HIV-1IIIB-infected H9 cells were labeled with BCECF (2′,7′-bis(2-carboxyethyl)-5-6-carboxyfluorescein-acetoxymethyl-ester, Molecular Probes, Eugene, Oreg.) according to the manufacturer's instructions. BCECF-labeled H9/HIV-1 IIIB cells (10^4) were mixed with 1×10^5 uninfected MT-2 cells. After incubation in a 96-well plate at 37° C. for 2 h, the fused and unfused labeled cells were counted under an inverted fluorescence microscope at ×160 magnification. At least 200 BCECF-labeled cells were counted and the proportion of fused cells was determined Fusion tests were carried out in the presence and absence of graded quantities of the tested Lipid-conjugates. […] The IC50 represents the concentration of a drug that is required to achieve 50% inhibition. Similarly, the IC90 represents the concentration of a drug that is required to achieve 90% inhibition.

[2] = molecular target: V3 (third variable) domain of the HIV-1 envelope glycoprotein gp120; test: V3 antibody binding (ELISA); parameters: species or system human immunodeficiency virus type 1 (HIV-1); details: standard ELISA
Method: V3 antibody binding is an assay that uses an antibody that binds to the V3 (third variable) domain of the human immunodeficiency virus type 1 (HIV-1) envelope glycoprotein gp120. Anti-V3 domain antibodies may provide an indicator of the presence and amount of HIV. V3 antibody binding was determined by standard ELISA.

[3] = system: nitric oxide (NO) production by BAL macrophages; type: in vivo, Brown Norway rats; details: compared to asthmatic and naïve rats, p<0.001; macrophages cultured without further treatment
[4] = system: rats with endotoxin-induced sepsis; test: Rat survival in LPS-induced endotoxinemia; type: in vivo; details: 100 mg/kg 3 hours before LPS (15 mg/kg i.p.) and 50 mg/kg with LPS; 48 hours
Method: Endotoxins administered to animals produce cardiovascular and multiorgan disorders that are similar to clinical sepsis. Thus, in the present study, a rat model was developed to test possible Lipid-conjugate effects on mediator production and mortality in endotoxin-induced Sepsis. Rats were intraperitoneally (i.p.) or intravenously (i.v.) injected with a Lipid-conjugate (Compound XXII, 100 mg/kg) dissolved in sterile saline or with sterile saline alone as placebo. After 3 hours, all rats received LPS (15 mg/kg i.p.; Escherichia coli 111:B44 LPS, Sigma, Deisenhofen, Germany). In rats that were pretreated with Compound XXII, LPS was injected together with a second dose of Compound XXII (50 mg/kg). The effect of Compound XXII on LPS injected rats was observed over a time period of 48 hours.

mice [5] = test: Acute (7 day) toxicity test; type: in vivo; details: for Body weight (g) Final / Hematocrit % / RBC × 10^6 / WBC × 10^3: 7 day; for Body weight (g) Final / Hematocrit % / RBC × 10^6 / WBC × 10^3 / Body weight (g) Start: mean ± SEM; for toxicity: mortality rate, body weight, blood count, hematocrit, internal organ histology: mice, one week after a single i.p. dose of 1000, 500 or 200 mg/kg, versus untreated mice
Method: […] Mortality rate, body weight, blood count (red and white cells), hematocrit, and internal organ histology after sacrifice were assessed. These parameters were compared in Lipid-conjugate-treated and in control, untreated mice.

mice [6] = test: Long-term (30 weeks) toxicity test; type: in vivo
Method: For the long-term toxicity test a group of 6 mice received an i.p injection of 100 mg Lipid-conjugate (Compound XXII)/kg body weight 3 times a week for 30 weeks (e.g., 180 mg total to a mouse weighing 20 g). Toxicity was evaluated as for Table 8.1. The results of the long-term toxicity test are depicted in Table 8.2.

[7] = system: TNFα production by BAL macrophages; test: TNFα production by macrophages from BAL of OVA-sensitized asthmatic rats; details: compared with Naive and Dx-treated rats; p<0.001 vs Asthmatic
[8] = system: Madin Darby canine kidney (MDCK) cells; type: cell-based; details: high concentration, Neutral Red Uptake Assay
Human RBC = test: Prevention of hemolysis of human red blood cells; type: cell-based; details: 20 min, 10 μM Lipid-conjugate, None = 1.000
Method: Hemolysis, the breakdown of red blood cells (RBC), may be either a primary disease in itself, or a syndrome associated with another disease or physiological insult. In order to determine the effect of Lipid-conjugates on hemolysis, red blood cells were incubated in the presence of known membrane destabilizing agents and the release of hemoglobulin into the extracellular medium was detected.
Human RBC were washed in saline and suspended in Hanks buffer (pH 7.4). Hemolysis was induced in the absence or presence of 10 μM Lipid-conjugates by treatment with either 5 U/ml streptolysin O (SLO), 25 U/ml streptolysin S (SLS), or 5 μg/ml lysophosphatidylcholine (lyso-PC) for 20 min. The cell membranes were spun and the hemoglobin content in the supernatant was determined by measuring the O.D. at 540 nm (Table 5.1).

[9] = 100 mg/kg i.p. 3 times/week for 30 weeks

Substance: dipalmitoyl-PE conjugated to HA [Compound XXII]
- HIV infectivity (HIV): prevent HIV infection of cells
- IC50 (HIV-1IIIB): 3.11 µM
- IC50 (mean ± SD), inhibition of p24 production (HIV-1IIIB): 207.0 ± 18.0 µg/mL
- IC90 (HIV-1IIIB): 5.76 µM
- IC90 (mean ± SD), inhibition of p24 production (HIV-1IIIB): 384.3 ± 79.3 µg/mL
- IC50 (mean ± SD), inhibition of fusion [1]: >500 µg/mL
- IC90 (mean ± SD), inhibition of fusion [1]: >500 µg/mL
- IC50 [1]: > 7.5 µM
- IC90 [1]: > 7.5 µM
- IC50 [2]: 45 µM
- NO level, BAL macrophages [3]: reduced
- mortality rate among septic rats [4]: markedly reduced the mortality rate
- Body weight (g) Final (mice [5]; 250 mg/kg body weight): 23.1 ± 0.6 g
- Hematocrit % (mice [5]; 250 mg/kg body weight): 43.3 ± 0.7%
- RBC × 10^6 (mice [5]; 250 mg/kg body weight): 11.4 ± 0.1 × 10^6
- WBC × 10^3 (mice [5]; 250 mg/kg body weight): 7.7 ± 0.2 × 10^3
- Body weight (g) Start (mice [5]; 250 mg/kg body weight): 22.1 ± 0.4 g
- Body weight (g) Final (mice [5]; 500 mg/kg body weight): 22.3 ± 0.4 g
- Hematocrit % (mice [5]; 500 mg/kg body weight): 44.7 ± 2.3%
- RBC × 10^6 (mice [5]; 500 mg/kg body weight): 11.5 ± 0.3 × 10^6
- WBC × 10^3 (mice [5]; 500 mg/kg body weight): 8.1 ± 1.3 × 10^3
- Body weight (g) Start (mice [5]; 500 mg/kg body weight): 21.4 ± 0.3 g
- Body weight (g) Final (mice [5]; 1000 mg/kg body weight): 22.1 ± 0.2 g
- Hematocrit % (mice [5]; 1000 mg/kg body weight): 40.3 ± 0.7%
- RBC × 10^6 (mice [5]; 1000 mg/kg body weight): 10.9 ± 0.4 × 10^6
- WBC × 10^3 (mice [5]; 1000 mg/kg body weight): 7.4 ± 0.6 × 10^3
- Body weight (g) Start (mice [5]; 1000 mg/kg body weight): 21.7 ± 0.2 g
- toxicity: mortality rate, body weight, blood count, hematocrit, internal organ histology (mice [5]): did not alter the parameters
- mortality (mice [6]; 100 mg/kg i.p. 3 times a week for 30 weeks): no incidents of mortality
- changes in body weight, red or white blood cell count, or hematocrit (mice [6]; 100 mg/kg i.p. 3 times a week for 30 weeks, compared to control, untreated mice): no significant changes
- Body weight (g) Final (mice [6]; [9]): 39.0 ± 2.7 g
- Hematocrit % (mice [6]; [9]): 43.4 ± 4.9%
- RBC × 10^6 (mice [6]; [9]): 11.7 ± 0.7 × 10^6
- WBC × 10^3 (mice [6]; [9]): 8.1 ± 15 × 10^3
- TNFα production, BAL macrophages [7]: no significant differences

Substance: dipalmitoyl-phosphatidyl-ethanolamine conjugated to heparin [Compound XXIV]
- HIV infectivity (HIV): prevent HIV infection of cells
- IC50 (HIV-1IIIB): 0.7 µM
- IC50 (mean ± SD), inhibition of p24 production (HIV-1IIIB): 10.0 ± 2.3 µg/mL
- IC90 (HIV-1IIIB): 1.35 µM
- IC90 (mean ± SD), inhibition of p24 production (HIV-1IIIB): 19.3 ± 4.5 µg/mL
- IC50 (mean ± SD), inhibition of fusion [1]: 7.9 ± 1.3 µg/mL
- IC90 (mean ± SD), inhibition of fusion [1]: 15.3 ± 3.9 µg/mL
- IC50 [1]: 0.55 µM
- IC90 [1]: 1.07 µM
- IC50 [2]: 140 µM
- IC50 ([8]; listed as Influenza A (H1N1 strain)): 64 µg/mL
- IC50 ([8]; listed as Influenza A (H3N2 strain)): 110 µg/mL
- IC50 ([8]; listed as Influenza B): 220 µg/mL
- HEMOLYSIS (O.D. AT 540 nm), Lyso-PC (Human RBC; 5 μg/ml lysophosphatidylcholine): 0.002 O.D.
- HEMOLYSIS (O.D. AT 540 nm), SLO (Human RBC; 5 U/ml streptolysin O): 0.002 O.D.
- HEMOLYSIS (O.D. AT 540 nm), SLS (Human RBC; 25 U/ml streptolysin S): 1.100 O.D.
- toxicity: mortality rate, body weight, blood count, hematocrit, internal organ histology (mice [5]): did not alter the parameters
